# What was measured:
# [1] = target: T1, HBV core protein (C-terminal truncated, 149 aa assembly domain) (Hepatitis B virus genotype D subtype adw, UniProt P03147, C107A/C48A/C61A); experiment: Biochemical capsid assembly assay (fluorescence quenching); settings: BODIPY-FL labelled core protein, assembly started with NaCl, read after 6 min; read-out: Assembly Activity
# T1 construct: The C-terminal truncated core protein containing 149 amino acids of the N-terminal assembly domain; made in house; host or cells: E. coli BL21 (DE3) Rosetta2, plasmid pET21b
# T1 sequence (P03147 1-150, looked up, stated change not applied): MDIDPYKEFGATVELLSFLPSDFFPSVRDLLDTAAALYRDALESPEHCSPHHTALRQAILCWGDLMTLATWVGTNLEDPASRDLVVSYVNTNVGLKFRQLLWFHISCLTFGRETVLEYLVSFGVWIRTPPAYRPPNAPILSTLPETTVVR
# Description: Biochemical Capsid Assembly Assay
# The screening for assembly effector activity was done based on a fluorescence quenching assay published by Zlotnick et al. (2007). The C-terminal truncated core protein containing 149 amino acids of the N-terminal assembly domain fused to a unique cysteine residue at position 150 and was expressed in E. coli using the pET expression system (Merck Chemicals, Darmstadt). Purification of core dimer protein was performed using a sequence of size exclusion chromatography steps. In brief, the cell pellet from 1 L BL21 (DE3) Rosetta2 culture expressing the coding sequence of core protein cloned NdeI/XhoI into expression plasmid pET21b was treated for 1 h on ice with a native lysis buffer (Qproteome Bacterial Protein Prep Kit; Qiagen, Hilden). After a centrifugation step the supernatant was precipitated during 2 h stirring on ice with 0.23 g/ml of solid ammonium sulfate. Following further centrifugation the resulting pellet was resolved in buffer A (100 mM Tris, pH 7.5; 100 mM NaCl; 2 mM DTT) and was subsequently loaded onto a buffer A equilibrated CaptoCore 700 column (GE HealthCare, Frankfurt). The column flow through containing the assembled HBV capsid was dialyzed against buffer N (50 mM NaHCO3 pH 9.6; 5 mM DTT) before urea was added to a final concentration of 3M to dissociate the capsid into core dimers for 1.5 h on ice. The protein solution was then loaded onto a 1 L Sephacryl 5300 column. After elution with buffer N core dimer containing fractions were identified by SDS-PAGE and subsequently pooled and dialyzed against 50 mM HEPES pH 7.5; 5 mM DTT. To improve the assembly capacity of the purified core dimers a second round of assembly and disassembly starting with the addition of 5 M NaCl and including the size exclusion chromatography steps described above was performed. From the last chromatography step core dimer containing fractions were pooled and stored in aliquots at concentrations between 1.5 to 2.0 mg/ml at −80° C.
# Immediately before labelling the core protein was reduced by adding freshly prepared DTT in a final concentration of 20 mM. After […] on ice storage buffer and DTT was removed using a Sephadex G-25 column (GE HealthCare, Frankfurt) and 50 mM HEPES, pH 7.5. For labelling 1.6 mg/ml core protein was incubated at 4° C. and darkness overnight with BODIPY-FL maleimide (Invitrogen, Karlsruhe) in a final concentration of 1 mM. After labelling the free dye was removed by an additional desalting step using a Sephadex G-25 column. Labelled core dimers were stored in aliquots at 4° C. In the dimeric state the fluorescence signal of the labelled core protein is high and is quenched during the assembly of the core dimers to high molecular capsid structures. The screening assay was performed in black 384 well microtiter plates in a total assay volume of 10 μl using 50 mM HEPES pH 7.5 and 1.0 to 2.0 μM labelled core protein. Each screening compound was added in 8 different concentrations using a 0.5 log-unit serial dilution starting at a final concentration of 100 μM, 31.6 μM or 10 μM, In any case the DMSO concentration over the entire microtiter plate was 0.5%. The assembly reaction was started by the injection of NaCl to a final concentration of […] which induces the assembly process to approximately 25% of the maximal quenched signal. 6 min after starting the reaction the fluorescence signal was measured using a Clariostar plate reader (BMG Labtech, Ortenberg) with an excitation of 477 nm and an emission of 525 nm. As 100% and 0% assembly control HEPES buffer containing 2.5 M and 0 M NaCl was used. Experiments were performed thrice in triplicates. EC50 values were calculated by non-linear regression analysis using the Graph Pad Prism 6 software (GraphPad Software, La Jolla, USA).
# [2] = tested on: HBV; experiment: HBV replication assay: HBV DNA from the supernatants of HepAD38 cells; format: cell-based; settings: Hepatitis B virus, 144 h, HBV DNA in supernatant by qPCR at day 6, read-out: Cell Activity
# Description: Determination of HBV DNA from the Supernatants of HepAD38 Cells
# The anti-HBV activity was analysed in the stable transfected cell line HepAD38, which has been described to secrete high levels of HBV virion particles (Ladner et al., 1997). In brief, HepAD38 cells were cultured at 37° C. at 5% CO2 and 95% humidity in 200 μl maintenance medium, which was Dulbecco's modified Eagle's medium/Nutrient Mixture F-12 (Gibco, Karlsruhe), 10% fetal bovine serum (PAN Biotech Aidenbach) supplemented with 50 μg/ml penicillin/streptomycin (Gibco, Karlsruhe), 2 mM L-glutamine (PAN Biotech, Aidenbach), 400 μg/ml G418 (AppliChem, Darmstadt) and 0.3 μg/ml tetracycline. Cells were subcultured once a week in a 1:5 ratio, but were usually not passaged more than ten times. For the assay 60,000 cells were seeded in maintenance medium without any tetracycline into each well of a 96-well plate and treated with serial half-log dilutions of test compound. To minimize edge effects the outer 36 wells of the plate were not used but were filled with assay medium. On each assay plate six wells for the virus control (untreated HepAD38 cells) and six wells for the cell control (HepAD38 cells treated with 0.3 μg/ml tetracycline) were allocated, respectively. In addition, one plate set with reference inhibitors like BAY 41-4109, entecavir, and lamivudine instead of screening compounds were prepared in each experiment. In general, experiments were performed thrice in triplicates. At day 6 HBV DNA from 100 μl filtrated cell culture supernatant (AcroPrep Advance 96 Filter Plate, […] Supor membran, PALL GmbH, Dreieich) was automatically purified on the MagNa Pure LC instrument using the MagNA Pure 96 DNA and Viral NA Small Volume Kit (Roche Diagnostics, Mannheim) according to the instructions of the manufacturer. EC50 values were calculated from relative copy numbers of HBV DNA In brief, 5 μl of the 100 μl eluate containing HBV DNA were subjected to PCR LC480 Probes Master Kit (Roche) together with 1 μM antisense primer […], 0.5 μM sense primer […], 0.3 μM hybprobes […]-FL and LC640-[…]-PH (TIBMolBiol, Berlin) to a final volume of […]. The PCR was performed on the Light Cycler 480 real time system (Roche Diagnostics, Mannheim) using the following protocol: Pre-incubation for 1 min at 95° C., amplification: 40 cycles×(10 sec at 95° C., 50 sec at 60° C., 1 sec at 70° C.), cooling for 10 sec at 40° C. Viral load was quantitated against known standards using HBV plasmid DNA of pCH-9/3091 (Nassal et al., 1990, Cell 63: 1357-1363) and the LightCycler 480 SW 1.5 software (Roche Diagnostics, Mannheim) and EC50 values were calculated using non-linear regression with GraphPad Prism 6 (GraphPad Software Inc., La Jolla, USA).
SMILES,IC50 [1] [µM],EC50 [2] [µM]
"CC1Cc2[nH]nc(-c3cscn3)c2CN1C(=O)c1cc2c(F)cccn2c1 (stereo not shown) [Example 24, 8-fluoro-2-[6-methyl-3-(1,3-thiazol-4-yl)-1H,4H,5H,6H,7H-pyrazolo[4,3-c]pyridine-5-carbonyl]indolizine]",< 5,< 1
"CC1Cc2[nH]nc(-c3cscn3)c2CN1C(=O)c1cc2ccccn2c1 (stereo not shown) [Example 26, 2-[6-methyl-3-(1,3-thiazol-4-yl)-1H,4H,5H,6H,7H-pyrazolo[4,3-c]pyridine-5-carbonyl]indolizine]",< 5,< 1
"CC1Cc2[nH]nc(-c3cscn3)c2CN1C(=O)c1cc2cc(Cl)ccn2c1 (stereo not shown) [Example 19, 7-chloro-2-[6-methyl-3-(1,3-thiazol-4-yl)-1H,4H,5H,6H,7H-pyrazolo[4,3-c]pyridine-5-carbonyl]indolizine]",5 to 10,< 1
"CC1Cc2[nH]nc(-c3cscn3)c2CN1C(=O)c1cc2c(C(F)(F)F)cccn2c1 (stereo not shown) [Example 25, 2-[6-methyl-3-(1,3-thiazol-4-yl)-1H,4H,5H,6H,7H-pyrazolo[4,3-c]pyridine-5-carbonyl]-8-(trifluoromethyl)indolizine]",5 to 10,< 1
"CN(C(=O)c1cnn2c1CN(C(=O)c1cc3c(F)cc(F)cn3c1)CC2)C1(COC(F)F)CC1 [Example 7, 5-(6,8-difluoroindolizine-2-carbonyl)-N-{1-[(difluoromethoxy)methyl]cyclopropyl}-N-methyl-4H,5H,6H,7H-pyrazolo[1,5-a]pyrazine-3-carboxamide]",< 5,< 1
"CC1Cc2[nH]nc(-c3cscn3)c2CN1C(=O)c1cc2c(Cl)cc(Cl)cn2c1 (stereo not shown) [Example 18, 6,8-dichloro-2-[6-methyl-3-(1,3-thiazol-4-yl)-1H,4H,5H,6H,7H-pyrazolo[4,3-c]pyridine-5-carbonyl]indolizine]",5 to 10,< 1
"COCC1(N(C)C(=O)c2[nH]nc3c2CN(C(=O)c2cc4cccc(Cl)n4c2)CC3)CC1 [Example 4, 5-(5-chloroindolizine-2-carbonyl)-N-[1-(methoxymethyl)cyclopropyl]-N-methyl-2H,4H,5H,6H,7H-pyrazolo[4,3-c]pyridine-3-carboxamide]",5 to 10,< 1
"CC1Cc2[nH]nc(-c3cscn3)c2CN1C(=O)c1cc2cccc(C(F)(F)F)n2c1 (stereo not shown) [Example 12, 2-[6-methyl-3-(1,3-thiazol-4-yl)-1H,4H,5H,6H,7H-pyrazolo[4,3-c]pyridine-5-carbonyl]-5-(trifluoromethyl)indolizine]",< 100,1 to 10
